The values below come from BindingDB's records for patent US20250197406 (1ST Biotherapeutics, 2025).

In this test the target is Mitogen-activated protein kinase kinase kinase kinase 1 (Homo sapiens, UniProt Q92918). The experiment in a line: HPK1 Kinase Assay. As to the method:
HPK1 kinase activity was measured by Promega's ADP-Glo™ kinase assay. In this assay, 5 ng of recombinant human HPK1 (signalchem) is incubated with 5 μL of compounds (0.5% DMSO), 5 μL of MBP (0.5 μg/μl) and 5 μL of ATP (25 μM) in buffer (40 mM Tris, 7.5; 20 mM MgCl2; 0.1 mg/ml BSA; 50 μM DTT.). The assay was started by incubating the reaction mixture in a 96-well plate at 30° C. for 40 minutes. After the incubation, 25 μL ADP-Glo reagent was added and the reaction was incubated at room temperature for 40-min to stop the reaction and degrade residual ATP. The ADP product was then converted to ATP by adding 50 μL per well of detection reagent. Luminescence was detected after 30-min room temperature incubation with the Molecular device I3X plate reader. The IC50 values were calculated from a series of percent inhibition values determined at a range of inhibitor concentration using software routines as implemented in the GraphPad Prism 7 software and SigmaPlot13.0.

Molecules are shown by their SMILES.

Chain of Mitogen-activated protein kinase kinase kinase kinase 1 (Q92918 whole entry): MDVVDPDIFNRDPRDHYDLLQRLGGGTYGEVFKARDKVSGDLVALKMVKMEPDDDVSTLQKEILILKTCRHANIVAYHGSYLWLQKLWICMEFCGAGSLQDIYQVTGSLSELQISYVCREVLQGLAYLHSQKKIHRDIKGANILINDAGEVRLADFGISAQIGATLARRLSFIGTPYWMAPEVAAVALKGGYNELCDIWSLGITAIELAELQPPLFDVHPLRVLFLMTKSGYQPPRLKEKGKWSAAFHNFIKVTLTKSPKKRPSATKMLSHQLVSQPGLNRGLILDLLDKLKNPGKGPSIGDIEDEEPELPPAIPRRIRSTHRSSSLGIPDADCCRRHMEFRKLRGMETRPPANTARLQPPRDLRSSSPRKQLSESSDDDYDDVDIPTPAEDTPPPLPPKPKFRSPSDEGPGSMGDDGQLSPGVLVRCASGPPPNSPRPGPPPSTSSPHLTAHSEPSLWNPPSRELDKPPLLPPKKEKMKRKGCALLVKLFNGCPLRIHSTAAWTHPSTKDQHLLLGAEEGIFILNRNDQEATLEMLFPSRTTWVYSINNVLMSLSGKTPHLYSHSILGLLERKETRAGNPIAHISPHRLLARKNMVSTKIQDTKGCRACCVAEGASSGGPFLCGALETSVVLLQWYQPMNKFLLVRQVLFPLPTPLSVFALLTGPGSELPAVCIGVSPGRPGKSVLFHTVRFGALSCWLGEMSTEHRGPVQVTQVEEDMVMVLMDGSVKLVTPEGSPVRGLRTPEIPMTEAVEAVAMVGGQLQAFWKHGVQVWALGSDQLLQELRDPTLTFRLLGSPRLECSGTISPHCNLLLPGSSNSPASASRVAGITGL

As a reminder, the IC50 is the point on the concentration scale where inhibition reaches its midpoint. Low readings indicate inhibition by little substance, high ones a need for much substance. On to `CC(=O)Nc1cn2cc(-c3c(Cl)c(F)c(NC(C)C)c4[nH]ncc34)ncc2n1` [US20250197406, Example 43], for which the IC50 was below 100 nM.
The compound `CC(C)Nc1c(F)c(Cl)c(-c2cn3cc(NC(=O)C4(F)CC4)nc3cn2)c2cn[nH]c12` [US20250197406, Example 52] had a half-maximal inhibitory concentration (IC50) below 100 nM.
